According to patent publication US5583018A, “Rapamycin derivative process for its preparation and its use” (SmithKline Beecham p.l.c., priority 1993, dated 1996):

Assays:
[1] = system: Spleen cells; assay: Mitogenesis assay for immunosuppressive activity (Concanavalin A stimulated spleen cells, 3H-thymidine); assay type: cell-based, BDF1 female mice
Protocol: Spleen cells for BDF1 female mice were established in RPMI with 10% fetal calf serum at 5×10^6 /mL. One hundred […] of this suspension (5×10^5 cells) were dispensed into 96-well round-bottomed microtiter plates (Linbro, Flow Laboratories). Concanavalin A (5 μg/ml) was added as the mitogenic stimulus, and the final volume in the microliter wells was adjusted to 200 μL with RPMI. Cell cultures were incubated for 72 hours at 37° C. in a 5% CO2 atmosphere and pulsed with 0,5 μCi ^3 H-thymidine (specific activity […]) for the last 18 hours of the 72 hours culture. The cells were harvested on an automated multiple sample harvester and cell-associated radioactivity counted in a Beckman liquid scintillation counter. The results were expressed as the mean values derived from quadruplicate measurements. Cell viability was determined by trypan blue exclusion after 72 hours of incubation. Compounds to be tested were added to the microtiler plates at the appropriate dilutions prior to the addition of cells.

[2] = system: Saccharomyces cerevisiae; assay: Assay for antifungal activity (agar well zone of inhibition); assay type: cell-based
Protocol: Yeast organism (Saccharomyces cerevisiae) in logarithmic growth were plated on complete agar medium (YPD). Compounds dissolved in an appropriate aqueous or organic solvent were placed in wells punched in the agar. Plates were incubated for 48 hours and zones of inhibition were measured. The potency of compounds were quantified by regression analysis of plots of inhibition zone versus the log of drug concentration.

13,14-Bis(dihydro)rapamycin
immunomodulatory activity (in words) [1]: shows immunomodulatory activity | IC50 ([1]; spleen cells of BDF1 mice, Concanavalin A 5 μg/ml, 72 hours): 70 to 200 nM | antifungal activity (in words) [2]: shows antifungal activity | Antifungal Activity, IC12 ([2]; Saccharomyces cerevisiae on YPD agar, 48 hours, zones of inhibition): 190 to 840 ng/mL
